Test results from patent US20020048549A1, “Radioactive transition metal nitride heterocomplex” (priority 1996, published 2002).
Like-named read-outs stand apart in the source and are kept apart here. One block for each molecule: values may come before it.

Experiment: Biodistribution of 99mTc(N)(X)(DTC)+ heterocomplexes in rats
Type: in vivo, male Spraque-Dawley rats (SD rats)
Experimental: The biodistribution of a ^99mTc nitride heterocomplex represented by the general formula ^99mTc(N)(X)(Y) was investigated as follows: ^99mTc nitride heterocomplexes were synthesized using DTC as a bidentate ligand Y and each of the diphosphine compounds X described below, and the biodistribution in rats of each heterocomplex was investigated.
Before being injected into rats, the contents of the vial were diluted with phosphate buffer (0.1 mol/dm^3, pH=7.06) containing 10% Tween 80 ([…]). The complexes were stable in the solutions and in human plasma for at least 6 hours.
The biodistribution was measured using male Spraque-Dawley rats (SD rats) weighing 200 to 250 g. After 24 hours fasting, the rats were put under intraperitoneal anesthesia and given an injection in the jugular vein. Then, the organs were excised from the rats at different intervals of time, washed and then weighed. In addition, blood samples were collected and then weighed. The data on the biodistribution are expressed as the mean±significant difference of the percentage of radioactivity level per gram of the organ weight based on the dose of radioactivity, (% dose/g). The measurement was carried out using groups of 5 rats each.

Bone % dose/g: 0.244 ± 0.01 % dose/g
Heart % dose/g: 1.236 ± 0.08 % dose/g
Liver % dose/g: 3.593 ± 0.42 % dose/g
Spleen % dose/g: 1.948 ± 0.20 % dose/g
Blood % dose/g (0 min after injection): 2.125 ± 0.3 % dose/g
Brain % dose/g (0 min after injection): 0.143 ± 0.02 % dose/g
Intestine % dose/g (0 min after injection): 0.418 ± 0.03 % dose/g
Kidney % dose/g (0 min after injection): 2.66 ± 0.05 % dose/g
Lung % dose/g (0 min after injection): 5.815 ± 0.04 % dose/g
Muscle % dose/g (0 min after injection): 0.098 ± 0.00 % dose/g
Stomach % dose/g (0 min after injection): 0.337 ± 0.00 % dose/g
Blood % dose/g (2 min after injection): 1.062 ± 0.13 % dose/g
Bone % dose/g (2 min after injection): 0.234 ± 0.06 % dose/g
Brain % dose/g (2 min after injection): 0.086 ± 0.00 % dose/g
Heart % dose/g (2 min after injection): 0.824 ± 0.01 % dose/g
Intestine % dose/g (2 min after injection): 0.471 ± 0.00 % dose/g
Kidney % dose/g (2 min after injection): 4.145 ± 0.64 % dose/g
Liver % dose/g (2 min after injection): 5.555 ± 0.83 % dose/g
Lung % dose/g (2 min after injection): 4.653 ± 0.65 % dose/g
Muscle % dose/g (2 min after injection): 0.085 ± 0.01 % dose/g
Spleen % dose/g (2 min after injection): 4.459 ± 0.09 % dose/g
Stomach % dose/g (2 min after injection): 0.379 ± 0.02 % dose/g
Blood % dose/g (10 min after injection): 0.495 ± 0.01 % dose/g
Bone % dose/g (10 min after injection): 0.3 ± 0.05 % dose/g
Brain % dose/g (10 min after injection): 0.041 ± 0.00 % dose/g
Heart % dose/g (10 min after injection): 0.795 ± 0.06 % dose/g
Intestine % dose/g (10 min after injection): 0.704 ± 0.08 % dose/g
Kidney % dose/g (10 min after injection): 4.251 ± 0.02 % dose/g
Liver % dose/g (10 min after injection): 5.795 ± 0.03 % dose/g
Lung % dose/g (10 min after injection): 3.191 ± 0.60 % dose/g
Muscle % dose/g (10 min after injection): 0.121 ± 0.02 % dose/g
Spleen % dose/g (10 min after injection): 7.237 ± 0.88 % dose/g
Stomach % dose/g (10 min after injection): 0.438 ± 0.03 % dose/g
Blood % dose/g (30 min after injection): 0.285 ± 0.01 % dose/g
Bone % dose/g (30 min after injection): 0.324 ± 0.05 % dose/g
Brain % dose/g (30 min after injection): 0.027 ± 0.00 % dose/g
Heart % dose/g (30 min after injection): 0.513 ± 0.07 % dose/g
Intestine % dose/g (30 min after injection): 1.107 ± 0.31 % dose/g
Kidney % dose/g (30 min after injection): 4.095 ± 0.73 % dose/g
Liver % dose/g (30 min after injection): 5.976 ± 0.49 % dose/g
Lung % dose/g (30 min after injection): 2.089 ± 0.16 % dose/g
Muscle % dose/g (30 min after injection): 0.106 ± 0.00 % dose/g
Spleen % dose/g (30 min after injection): 5.884 ± 2.7 % dose/g
Stomach % dose/g (30 min after injection): 0.444 ± 0.09 % dose/g
Blood % dose/g (1 hr after injection): 0.311 ± 0.03 % dose/g
Bone % dose/g (1 hr after injection): 0.398 ± 0.12 % dose/g
Brain % dose/g (1 hr after injection): 0.019 ± 0.00 % dose/g
Heart % dose/g (1 hr after injection): 0.55 ± 0.04 % dose/g
Intestine % dose/g (1 hr after injection): 0.896 ± 0.04 % dose/g
Kidney % dose/g (1 hr after injection): 4.779 ± 0.21 % dose/g
Liver % dose/g (1 hr after injection): 5.116 ± 0.00 % dose/g
Lung % dose/g (1 hr after injection): 1.586 ± 0.16 % dose/g
Muscle % dose/g (1 hr after injection): 0.302 ± 0.39 % dose/g
Spleen % dose/g (1 hr after injection): 6.711 ± 1.27 % dose/g
Stomach % dose/g (1 hr after injection): 0.625 ± 0.34 % dose/g
Blood % dose/g (2 hr after injection): 0.22 ± 0.05 % dose/g
Bone % dose/g (2 hr after injection): 0.347 ± 0.01 % dose/g
Brain % dose/g (2 hr after injection): 0.025 ± 0.00 % dose/g
Heart % dose/g (2 hr after injection): 0.603 ± 0.05 % dose/g
Intestine % dose/g (2 hr after injection): 0.977 ± 0.42 % dose/g
Kidney % dose/g (2 hr after injection): 5.327 ± 0.52 % dose/g
Liver % dose/g (2 hr after injection): 3.524 ± 0.53 % dose/g
Lung % dose/g (2 hr after injection): 1.716 ± 0.23 % dose/g
Muscle % dose/g (2 hr after injection): 0.111 ± 0.01 % dose/g
Spleen % dose/g (2 hr after injection): 4.747 ± 1.78 % dose/g
Stomach % dose/g (2 hr after injection): 0.776 ± 0.07 % dose/g
Blood % dose/g (4 hr after injection): 0.137 ± 0.02 % dose/g
Bone % dose/g (4 hr after injection): 0.264 ± 0.10 % dose/g
Brain % dose/g (4 hr after injection): 0.021 ± 0.00 % dose/g
Heart % dose/g (4 hr after injection): 0.382 ± 0.04 % dose/g
Intestine % dose/g (4 hr after injection): 0.906 ± 0.24 % dose/g
Kidney % dose/g (4 hr after injection): 4.282 ± 0.67 % dose/g
Liver % dose/g (4 hr after injection): 2.604 ± 0.25 % dose/g
Lung % dose/g (4 hr after injection): 1.08 ± 0.16 % dose/g
Muscle % dose/g (4 hr after injection): 0.077 ± 0.01 % dose/g
Spleen % dose/g (4 hr after injection): 6.294 ± 1.29 % dose/g
Stomach % dose/g (4 hr after injection): 0.719 ± 0.18 % dose/g
Structure (SMILES): CCCN1CC[P+](c2ccccc2)(c2ccccc2)[99Tc-2]2(#[N])([NH]N(C)C(SC)=[S+]2)[P+](c2ccccc2)(c2ccccc2)CC1 [^99mTc(N)(PNP1)(DTC)^+]

Bone % dose/g: 0.209 ± 0.01 % dose/g
Heart % dose/g: 1.399 ± 0.08 % dose/g
Liver % dose/g: 3.385 ± 0.81 % dose/g
Spleen % dose/g: 2.739 ± 0.07 % dose/g
Blood % dose/g (0 min after injection): 3.220 ± 0.45 % dose/g
Brain % dose/g (0 min after injection): 0.120 ± 0.00 % dose/g
Intestine % dose/g (0 min after injection): 0.906 ± 0.03 % dose/g
Kidney % dose/g (0 min after injection): 5.702 ± 0.732 % dose/g
Lung % dose/g (0 min after injection): 3.568 ± 0.94 % dose/g
Muscle % dose/g (0 min after injection): 0.134 ± 0.01 % dose/g
Stomach % dose/g (0 min after injection): 0.752 ± 0.09 % dose/g
Blood % dose/g (2 min after injection): 1.025 ± 0.02 % dose/g
Bone % dose/g (2 min after injection): 0.265 ± 0.04 % dose/g
Brain % dose/g (2 min after injection): 0.065 ± 0.01 % dose/g
Heart % dose/g (2 min after injection): 0.728 ± 0.04 % dose/g
Intestine % dose/g (2 min after injection): 1.694 ± 0.18 % dose/g
Kidney % dose/g (2 min after injection): 4.941 ± 0.60 % dose/g
Liver % dose/g (2 min after injection): 7.723 ± 0.20 % dose/g
Lung % dose/g (2 min after injection): 2.040 ± 0.234 % dose/g
Muscle % dose/g (2 min after injection): 0.077 ± 0.00 % dose/g
Spleen % dose/g (2 min after injection): 5.018 ± 0.02 % dose/g
Stomach % dose/g (2 min after injection): 0.0603 ± 0.03 % dose/g
Blood % dose/g (10 min after injection): 0.355 ± 0.03 % dose/g
Bone % dose/g (10 min after injection): 0.268 ± 0.10 % dose/g
Brain % dose/g (10 min after injection): 0.040 ± 0.00 % dose/g
Heart % dose/g (10 min after injection): 0.736 ± 0.12 % dose/g
Intestine % dose/g (10 min after injection): 2.861 ± 0.74 % dose/g
Kidney % dose/g (10 min after injection): 6.910 ± 0.081 % dose/g
Liver % dose/g (10 min after injection): 4.686 ± 0.89 % dose/g
Lung % dose/g (10 min after injection): 1.481 ± 0.10 % dose/g
Muscle % dose/g (10 min after injection): 0.064 ± 0.02 % dose/g
Spleen % dose/g (10 min after injection): 5.334 ± 0.10 % dose/g
Stomach % dose/g (10 min after injection): 0.517 ± 0.16 % dose/g
Blood % dose/g (30 min after injection): 0.333 ± 0.03 % dose/g
Bone % dose/g (30 min after injection): 0.301 ± 0.03 % dose/g
Brain % dose/g (30 min after injection): 0.020 ± 0.00 % dose/g
Heart % dose/g (30 min after injection): 0.652 ± 0.19 % dose/g
Intestine % dose/g (30 min after injection): 7.254 ± 0.46 % dose/g
Kidney % dose/g (30 min after injection): 7.542 ± 1.410 % dose/g
Liver % dose/g (30 min after injection): 7.341 ± 0.38 % dose/g
Lung % dose/g (30 min after injection): 1.015 ± 0.16 % dose/g
Muscle % dose/g (30 min after injection): 0.103 ± 0.02 % dose/g
Spleen % dose/g (30 min after injection): 5.131 ± 0.59 % dose/g
Stomach % dose/g (30 min after injection): 1.135 ± 0.298 % dose/g
Blood % dose/g (1 hr after injection): 0.19 ± 0.01 % dose/g
Bone % dose/g (1 hr after injection): 0.294 ± 0.02 % dose/g
Brain % dose/g (1 hr after injection): 0.025 ± 0.00 % dose/g
Heart % dose/g (1 hr after injection): 0.534 ± 0.02 % dose/g
Intestine % dose/g (1 hr after injection): 7.644 ± 1.01 % dose/g
Kidney % dose/g (1 hr after injection): 6.713 ± 0.83 % dose/g
Liver % dose/g (1 hr after injection): 7.436 ± 1.44 % dose/g
Lung % dose/g (1 hr after injection): 1.011 ± 0.01 % dose/g
Muscle % dose/g (1 hr after injection): 0.075 ± 0.01 % dose/g
Spleen % dose/g (1 hr after injection): 5.073 ± 0.01 % dose/g
Stomach % dose/g (1 hr after injection): 0.932 ± 0.12 % dose/g
Blood % dose/g (2 hr after injection): 0.129 ± 0.02 % dose/g
Bone % dose/g (2 hr after injection): 0.357 ± 0.08 % dose/g
Brain % dose/g (2 hr after injection): 0.025 ± 0.00 % dose/g
Heart % dose/g (2 hr after injection): 0.511 ± 0.05 % dose/g
Intestine % dose/g (2 hr after injection): 6.442 ± 0.59 % dose/g
Kidney % dose/g (2 hr after injection): 6.799 ± 1.348 % dose/g
Liver % dose/g (2 hr after injection): 4.061 ± 0.64 % dose/g
Lung % dose/g (2 hr after injection): 0.962 ± 0.02 % dose/g
Muscle % dose/g (2 hr after injection): 0.102 ± 0.02 % dose/g
Spleen % dose/g (2 hr after injection): 5.507 ± 0.84 % dose/g
Stomach % dose/g (2 hr after injection): 1.701 ± 0.34 % dose/g
Blood % dose/g (4 hr after injection): 0.087 ± 0.00 % dose/g
Bone % dose/g (4 hr after injection): 0.329 ± 0.01 % dose/g
Brain % dose/g (4 hr after injection): 0.018 ± 0.00 % dose/g
Heart % dose/g (4 hr after injection): 0.506 ± 0.04 % dose/g
Intestine % dose/g (4 hr after injection): 4.054 ± 0.39 % dose/g
Kidney % dose/g (4 hr after injection): 7.471 ± 0.03 % dose/g
Liver % dose/g (4 hr after injection): 1.784 ± 0.25 % dose/g
Lung % dose/g (4 hr after injection): 0.670 ± 0.09 % dose/g
Muscle % dose/g (4 hr after injection): 0.08 ± 0.00 % dose/g
Spleen % dose/g (4 hr after injection): 5.055 ± 0.02 % dose/g
Stomach % dose/g (4 hr after injection): 1.220 ± 0.150 % dose/g
Structure (SMILES): COCCN1CC[P+](c2ccccc2)(c2ccccc2)[99Tc-2]2(#[N])([NH]N(C)C(SC)=[S+]2)[P+](c2ccccc2)(c2ccccc2)CC1 [^99mTc(N)(PNP2)(DTC)^+]
